Laboratory results reported in US8466191B2, “Pyrroline derivatives against cell releasing tumor necrosis factor, preparation methods and uses thereof” (priority 2006, dated 2013).

The molecules below were run on release of TNFα in peripheral blood mononuclear cells (PBMCs) stimulated by lipopolysaccharide (LPS) (assay: Inhibition of the release of TNFα in peripheral blood mononuclear cells (PBMCs) stimulated by lipopolysaccharide (LPS), ELISA). Settings: 3 μM compound; PBMCs 1×10^6 cells/mL, 1 hour preincubation, LPS 0.1 μg/mL, 20 hours incubation, TNFα in supernatant by ELISA.
Format: cell-based, human
Experimental: Pharmacological Research: Effects on the release of TNFα in peripheral blood mononuclear cells (PBMCs) stimulated by lipopolysaccharide (LPS) by compounds of the invention
Release of cytokine TNFα by PBMCs in the peripheral blood stimulated by lipid polysaccharide (LPS) was studied in vitro.
PBMCs collected from blood of at least three volunteers were pretreated with heparin by a gradient separation method, and washed three times with a 1640 culture medium (10% calf serum, 2 mM L-glutamine, […] mercaptoethanol, 50 μg/mL streptomycin, and 50 U/mL penicillin). The obtained PBMCs were then placed into a 24-well cell culture plate and the concentration was adjusted to 1×10^6 cells/mL with 1640 culture medium. The compounds to be tested were dissolved in dimethylsulfoxide to obtain a solution having a required concentration. The solution was added to the above-mentioned cell culture medium and cultured in an incubator (5% CO2, 90% humidity) for 1 hour. Then, LPS (Sigma) was added until the concentration reached 0.1 μg/mL (except for the control).
After 20 hours incubation, the content of TNFα in the supernatant of the PBMC culture medium was assayed using an ELISA kit (America Genzyme Co) by a standard method. The TNFα inhibition rate was calculated using values measured in the control well (not treated) and the test wells (treated with the compound to be tested). The concentration of compounds giving a 50% TNFα inhibition (IC50 value) was calculated using nonlinear regression analysis. Each concentration was determined twice and an average value was reported.

Going from COC(=O)CC(c1ccc(OC)c(OC)c1)N1C(=O)c2cscc2C1=O (centres unmarked) [Example 1, methyl 3-(3,4-dimethoxy-phenyl)-3-(4,6-dioxo-4H-thiophene[3,4-c]pyrrole-5(6H)-yl)propionate] to COC(=O)CC(c1ccc(OC)c(OC)c1)N1C(=O)c2csc(N)c2C1=O (centres unmarked) [Example 23, methyl 3-(3,4-Dimethoxy-phenyl)-3-(1-amino-4,6-dioxo-4H-thiophene[3,4-c]pyrrole-5(6H)-yl)propionate], the “Inhibition Rate (%)” value rises from 87.6% to 95.4%.

Going from CCN(CC)CCC(c1ccc(OCc2ccccc2)c(OC)c1)N1C(=O)c2cscc2C1=O (centres unmarked) [Example 55, 5-(1-(3-Methoxy-4-benzyloxyphenyl)-3-diethylamino-propyl)-5H-thiophene[3,4-c]pyrrole-4,6-dione] to COc1cc(C(CCN(C)C)N2C(=O)c3cscc3C2=O)ccc1OCc1ccccc1 (centres unmarked) [Example 54, 5-(1-(3-Methoxy-4-benzyloxyphenyl)-3-dimethylamino-propyl)-5H-thiophene[3,4-c]pyrrole-4,6-dione], the “Inhibition Rate (%)” value falls from 50.2% to 41.4%.

Going from CCOc1ccc(C(CC#N)N2C(=O)c3csc(N)c3C2=O)cc1OC (centres unmarked) [Example 38, 3-(3-Methoxy-4-ethoxy-phenyl)-3-(1-amino-4,6-dioxo-4H-thiophene[3,4-c]pyrrole-5(6H)-yl)propionitrile] to CCOc1cc(C(CC#N)N2C(=O)c3csc(N)c3C2=O)ccc1OC (centres unmarked) [Example 41, 3-(3-Ethoxy-4-methoxy-phenyl)-3-(1-amino-4,6-dioxo-4H-thiophene[3,4-c]pyrrole-5(6H)-yl)propionitrile], the “Inhibition Rate (%)” value falls from 94.9% to 91.2%.

First: COC(=O)CCN1C(=O)c2cscc2C1=O [Example 15, methyl 3-(4,6-Dioxo-4H-thiophene[3,4-c]pyrrole-5(6H)-yl)propionate]
Second: COC(=O)CCCN1C(=O)c2cscc2C1=O [Example 16, methyl 4-(4,6-Dioxo-4H-thiophene[3,4-c]pyrrole-5(6H)-yl)butyrate]
The “Inhibition Rate (%)” value of the first is higher: 40.9% for the first, 38.4% for the second.

First: COC(=O)[C@@H](c1ccccc1)N1C(=O)c2cscc2C1=O [Example 18, D-methyl 2-(4,6-dioxo-4H-thiophene[3,4-c]pyrrole-5(6H)-yl)-2-phenylacetate]
Second: COC(=O)[C@H](c1ccccc1)N1C(=O)c2cscc2C1=O [Example 17, L-methyl 2-(4,6-dioxo-4H-thiophene[3,4-c]pyrrole-5(6H)-yl)-2-phenylacetate]
The “Inhibition Rate (%)” value of the first is higher: 84.1% for the first, 83.5% for the second.

First: COc1ccc(C(CC#N)N2C(=O)c3csc(N)c3C2=O)cc1OC1CCCC1 (centres unmarked) [Example 42, 3-(3-Cyclopentyloxy-4-methoxy-phenyl)-3-(1-amino-4,6-dioxo-4H-thiophene[3,4-c]pyrrole-5(6H)-yl)propionitrile]
Second: COc1ccc(C(CC#N)N2C(=O)c3csc(N)c3C2=O)cc1OC (centres unmarked) [Example 39, 3-(3,4-dimethoxy-phenyl)-3-(1-amino-4,6-dioxo-4H-thiophene[3,4-c]pyrrole-5(6H)-yl)propionitrile]
The “Inhibition Rate (%)” value of the first is higher: 94.8% for the first, 93.4% for the second.

Compared with COC(=O)[C@H](c1ccccc1)N1C(=O)c2csc(N)c2C1=O [Example 29, L-methyl 2-(1-amino-4,6-dioxo-4H-thiophene[3,4-c]pyrrole-5(6H)-yl)-2-phenylacetate], COC(=O)[C@@H](c1ccccc1)N1C(=O)c2csc(N)c2C1=O [Example 30, D-methyl 2-(1-amino-4,6-dioxo-4H-thiophene[3,4-c]pyrrole-5(6H)-yl)-2-phenylacetate] is higher in “Inhibition Rate (%)” value: 87.6% for the first, 91.4% for the second.

COC(=O)CC(c1ccc(OC)c(OC2CCCC2)c1)N1C(=O)c2csc(NC(C)=O)c2C1=O (centres unmarked) [Example 31, methyl 3-(3-Cyclopentyloxy-4-methoxy-phenyl)-3-(1-acetylamino-4,6-dioxo-4H-thiophene[3,4-c]pyrrole-5(6H)-yl)propionate] and CCOc1ccc(C(CC(=O)OC)N2C(=O)c3csc(N)c3C2=O)cc1OC (centres unmarked) [Example 26, methyl 3-(3-Methoxy-4-ethoxy-phenyl)-3-(1-amino-4,6-dioxo-4H-thiophene[3,4-c]pyrrole-5(6H)-yl)propionate] are the same in “Inhibition Rate (%)” value: 93.6% for the first, 93.6% for the second.

First: COc1cc(C(CC#N)N2C(=O)c3csc(N)c3C2=O)ccc1OCc1ccccc1 (centres unmarked) [Example 40, 3-(3-Methoxy-4-benzyloxyphenyl)-3-(1-amino-4,6-dioxo-4H-thiophene[3,4-c]pyrrole-5(6H)-yl)propionitrile]
Second: CCOc1ccc(C(CC(=O)O)N2C(=O)c3cscc3C2=O)cc1OC (centres unmarked) [Example 58, 3-(3-Methoxy-4-ethoxy-phenyl)-3-(4,6-dioxo-4H-thiophene[3,4-c]pyrrole-5(6H)-yl)propionic acid]
The “Inhibition Rate (%)” value of the first is higher: 83.6% for the first, 20.7% for the second.

For CCOc1ccc(C(CC(=O)NO)N2C(=O)c3cscc3C2=O)cc1OC (centres unmarked) [Example 59, 3-(3-Methoxy-4-ethoxy-phenyl)-3-(4,6-dioxo-4H-thiophene[3,4-c]pyrrole-5(6H)-yl)-N-hydroxy propionamide], the “Inhibition Rate (%)” value was 80%.

Same assay, conditions: Homo sapiens, PBMC; 3 μM compound; PBMCs 1×10^6 cells/mL, 1 hour preincubation, LPS 0.1 μg/mL, 20 hours incubation, TNFα in supernatant by ELISA; read-out: Inhibition Rate (%)

For O=C1CCC(N2C(=O)c3ccccc3C2=O)C(=O)N1 (centres unmarked) [Thalidomide, reference compound], the inhibition at 3 µM was 22%.
